Tests used:
Human 5-lipoxygenase = biological target: T1, Human 5-lipoxygenase (Homo sapiens, UniProt P09917); assay: Activity of compounds against 5-LO enzyme (LTB4 measurement and/or fluorescence method); format: biochemical; conditions: for inhibition at 10 µM: 5-LO, single concentration of 10 uM in duplicate; for IC50: 6 or 11 point dose response in duplicate
T1 construct: purchased Cayman 60402; host or cells: insect cells
T1 sequence (P09917 1-674): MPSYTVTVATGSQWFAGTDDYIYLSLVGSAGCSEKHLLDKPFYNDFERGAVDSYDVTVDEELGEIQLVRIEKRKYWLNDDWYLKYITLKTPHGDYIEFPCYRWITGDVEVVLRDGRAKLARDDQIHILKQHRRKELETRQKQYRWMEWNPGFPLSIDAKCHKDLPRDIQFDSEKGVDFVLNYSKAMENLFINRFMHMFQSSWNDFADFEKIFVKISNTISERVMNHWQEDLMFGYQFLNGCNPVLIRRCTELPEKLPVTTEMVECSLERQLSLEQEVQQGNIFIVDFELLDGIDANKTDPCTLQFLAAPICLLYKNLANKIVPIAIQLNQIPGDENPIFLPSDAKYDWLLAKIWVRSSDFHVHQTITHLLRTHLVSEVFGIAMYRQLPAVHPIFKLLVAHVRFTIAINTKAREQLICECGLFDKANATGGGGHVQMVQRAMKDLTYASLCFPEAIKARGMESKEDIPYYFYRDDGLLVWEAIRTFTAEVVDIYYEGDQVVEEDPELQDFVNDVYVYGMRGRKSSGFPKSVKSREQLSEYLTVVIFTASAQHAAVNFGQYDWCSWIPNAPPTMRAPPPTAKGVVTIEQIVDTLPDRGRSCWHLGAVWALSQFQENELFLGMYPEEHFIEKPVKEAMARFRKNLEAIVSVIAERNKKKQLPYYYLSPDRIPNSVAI
Method in brief: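 Insect-cell human 5-LO preincubated 15 min at RT with compound (pH 7.4, 2 mM CaCl2, 0.1 mM ATP, 1% DMSO), then 3 uM arachidonic acid for 5 min at 37 °C; LTB4 quantified by EIA and/or LC/MS/MS. Alternatively, fluorescence of 5-HpETE via H2DCFDA, 100 uM ATP, 3 uM arachidonic acid, 5 min, RT; single 10 uM screen then 6- or 11-point IC50.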

## CCc1nc2cc(Cl)ccn2c1C(=O)NCc1ccc(N2CC(C)OC(C)C2)cc1 (centres unmarked) [compound 183, 7-Chloro-N-(4-(2,6-dimethylmorpholino)benzyl)-2-ethylimidazo[1,2-a]pyridine-3-carboxamide]
other
  melting point: 165 to 166 °C
Human 5-lipoxygenase
  inhibition at 10 µM: < 40%

## Cc1nc2ccc(Cl)cn2c1C(=O)NCc1ccc(OC(F)(F)F)cc1 [compound 184, 6-Chloro-2-methyl-N-(4-(trifluoromethoxy)benzyl)imidazo[1,2-a]pyridine-3-carboxamide]
other
  melting point: 192 to 193 °C
Human 5-lipoxygenase
  inhibition at 10 µM: < 40%

## CCc1nc2cc(Cl)ccn2c1C(=O)NCc1ccc(Oc2ccc(F)cc2)nc1 [compound 188, 7-Chloro-2-ethyl-N-((6-(4-fluorophenoxy)pyridin-3-yl)methyl)imidazo[1,2-a]pyridine-3-carboxamide]
other
  melting point: 167 to 167.6 °C
Human 5-lipoxygenase
  inhibition at 10 µM: 40 to 69%

## CCc1nc2ccc(Cl)cn2c1C(=O)NCc1ccc(Oc2ccc(OC(F)(F)F)cc2)nc1 [compound 189, 6-Chloro-2-ethyl-N-((6-(4-(trifluoromethoxy)phenoxy)pyridin-3-yl)methyl)imidazo[1,2-a]pyridine-3-carboxamide]
other
  melting point: 154 to 155 °C
Human 5-lipoxygenase
  inhibition at 10 µM: > 69%
  IC50: < 1000 nM

## CCc1nc2ccc(Cl)cn2c1C(=O)NCc1ccc(N2CCCC2)cc1 [compound 191, 6-Chloro-2-ethyl-N-(4-(pyrrolidin-1-yl)benzyl)imidazo[1,2-a]pyridine-3-carboxamide]
other
  melting point: 222 to 223 °C
Human 5-lipoxygenase
  inhibition at 10 µM: < 40%

## CCc1nc2ccc(Cl)cn2c1C(=O)NCc1ccc(N2CC(C)CC(C)C2)cc1 (centres unmarked) [compound 197, 6-Chloro-N-(4-(3,5-dimethylpiperidin-1-yl)benzyl)-2-ethylimidazo[1,2-a]pyridine-3-carboxamide]
other
  melting point: 157.2 to 158 °C
Human 5-lipoxygenase
  inhibition at 10 µM: > 69%
  IC50: > 20000 nM

## CCc1nc2cc(Cl)ccn2c1C(=O)NCc1ccc(N2CC(C)CC(C)C2)cc1 (centres unmarked) [compound 198, 7-Chloro-N-(4-(3,5-dimethylpiperidin-1-yl)benzyl)-2-ethylimidazo[1,2-a]pyridine-3-carboxamide]
other
  melting point: 181.5 to 182.8 °C
Human 5-lipoxygenase
  inhibition at 10 µM: 40 to 69%

## CCc1nc2cc(Cl)ccn2c1C(=O)NCc1ccc(N2CCC(O)CC2)cc1 [compound 199, 7-Chloro-2-ethyl-N-(4-(4-hydroxypiperidin-1-yl)benzyl)imidazo[1,2-a]pyridine-3-carboxamide]
other
  melting point: 179.1 to 180 °C
Human 5-lipoxygenase
  inhibition at 10 µM: < 40%

## CCc1nc2cc(Cl)ccn2c1C(=O)NCc1ccc(N2C=CC(=O)CC2)cc1 [compound 201, 7-Chloro-2-ethyl-N-(4-(4-oxo-3,4-dihydropyridin-1(2H)-yl)benzyl)imidazo[1,2-a]pyridine-3-carboxamide]
other
  melting point: 201.3 to 202.8 °C
Human 5-lipoxygenase
  inhibition at 10 µM: < 40%

## CCc1nc2cc(Cl)ccn2c1C(=O)NCc1cccc(-c2ccc(OC(F)(F)F)cc2)c1 [compound 204, 7-Chloro-2-ethyl-N-((4′-(trifluoromethoxy)biphenyl-3-yl)methyl)imidazo[1,2-a]pyridine-3-carboxamide]
other
  melting point: 192.6 °C
Human 5-lipoxygenase
  inhibition at 10 µM: < 40%

## CCc1nc2ccc(Br)cn2c1C(=O)NCc1ccc(OCc2ccc(OC(F)(F)F)cc2)cc1 [compound 206, 6-Bromo-2-ethyl-N-(4-(4-(trifluoromethoxy)benzyloxy)benzyl)imidazo[1,2-a]pyridine-3-carboxamide]
other
  melting point: 189.7 °C
Human 5-lipoxygenase
  inhibition at 10 µM: < 40%

## CCc1nc2ccccn2c1C(=O)NCc1ccc(OCc2ccc(OC(F)(F)F)cc2)cc1 [compound 207, 2-Ethyl-N-(4-(4-(trifluoromethoxy)benzyloxy)benzyl)imidazo[1,2-a]pyridine-3-carboxamide]
other
  melting point: 138.7 °C
Human 5-lipoxygenase
  inhibition at 10 µM: > 69%
  IC50: 1000 to 20000 nM

## CCc1nc2cc(Cl)ccn2c1C(=O)NCc1ccc(N2CCC(Cc3ccccc3)CC2)cc1 [compound 208, N-(4-(4-Benzylpiperidin-1-yl)benzyl)-7-chloro-2-ethylimidazo[1,2-a]pyridine-3-carboxamide]
other
  melting point: 63.8 °C
Human 5-lipoxygenase
  inhibition at 10 µM: > 69%
  IC50: 1000 to 20000 nM

## CCc1nc2cc(Cl)ccn2c1C(=O)NCc1ccc(N2CCC(c3ccccc3)CC2)cc1 [compound 209, 7-Chloro-2-ethyl-N-(4-(4-phenylpiperidin-1-yl)benzyl)imidazo[1,2-a]pyridine-3-carboxamide]
other
  melting point: 164.5 °C
Human 5-lipoxygenase
  inhibition at 10 µM: > 69%

## CCc1nc2ccc(Cl)cn2c1C(=O)NCc1ccc(N2CCC(c3ccccc3)CC2)cc1 [compound 210, 6-Chloro-2-ethyl-N-(4-(4-phenylpiperidin-1-yl)benzyl)imidazo[1,2-a]pyridine-3-carboxamide]
other
  melting point: 138.2 °C
Human 5-lipoxygenase
  inhibition at 10 µM: 40 to 69%

## CCC1=C(C(=O)NCc2ccc(N3CCC(C)(C)CC3)cc2)N2C=CC(Cl)=CC2N1 (centres unmarked) [compound 211, 7-Chloro-N-(4-(4,4-dimethylpiperidin-1-yl)benzyl)-2-ethyl-1,8a-dihydroimidazo[1,2-a]pyridine-3-carboxamide]
other
  melting point: 121.3 °C
Human 5-lipoxygenase
  inhibition at 10 µM: > 69%
  IC50: 1000 to 20000 nM

## CCc1nc2cc(Cl)ccn2c1C(=O)NCc1ccc(N2CCC(CO)CC2)cc1 [compound 212, 7-Chloro-2-ethyl-N-(4-(4-(hydroxymethyl)piperidin-1-yl)benzyl)imidazo[1,2-a]pyridine-3-carboxamide]
other
  melting point: 179.8 °C
Human 5-lipoxygenase
  inhibition at 10 µM: < 40%

## CCc1nc2ccc(Cl)cn2c1C(=O)NCc1ccc(N2CCC(COc3ccc(OC(F)(F)F)cc3)CC2)cc1 [compound 213, 6-chloro-2-ethyl-N-(4-(4-((4-(trifluoromethoxy)phenoxy)methyl)piperidin-1-yl)benzyl)imidazo[1,2-a]pyridine-3-carboxamide]
other
  melting point: 183.6 °C
Human 5-lipoxygenase
  inhibition at 10 µM: < 40%

## CCc1nc2cc(Cl)ccn2c1C(=O)NCc1ccc(N2CCC(COc3ccc(OC(F)(F)F)cc3)CC2)cc1 [compound 214, 7-Chloro-2-ethyl-N-(4-(4-((4-(trifluoromethoxy)phenoxy)methyl)piperidin-1-yl)benzyl)imidazo[1,2-a]pyridine-3-carboxamide]
other
  melting point: 189.5 °C
Human 5-lipoxygenase
  inhibition at 10 µM: < 40%

## CCc1nc2cc(Cl)ccn2c1C(=O)NCc1ccc(NCc2ccc(OC(F)(F)F)cc2)cc1 [compound 215, 7-Chloro-2-ethyl-N-(4-((4-(trifluoromethoxy)benzyl)amino)benzyl)imidazo[1,2-a]pyridine-3-carboxamide]
other
  melting point: 169.6 °C
Human 5-lipoxygenase
  inhibition at 10 µM: 40 to 69%

## C=C1CCN(c2ccc(CNC(=O)c3c(CC)nc4cc(Cl)ccn34)cc2)CC1 [compound 218, 7-Chloro-2-ethyl-N-(4-(4-methylenepiperidin-1-yl)benzyl)imidazo[1,2-a]pyridine-3-carboxamide]
other
  melting point: 168.3 °C
Human 5-lipoxygenase
  inhibition at 10 µM: 40 to 69%

## CCc1nc2cc(C)ccn2c1C(=O)NCc1ccc(Oc2ccc(OC(F)(F)F)cc2)cc1 [compound 219, 2-Ethyl-7-methyl-N-(4-(4-(trifluoromethoxy)phenoxy)benzyl)imidazo[1,2-a]pyridine-3-carboxamide]
other
  melting point: 133.6 °C
Human 5-lipoxygenase
  inhibition at 10 µM: > 69%
  IC50: < 1000 nM
